EC50 and Ki data for 24 compounds are collected here from patent US8067447B2, “Modulators of glucocorticoid receptor, AP-1, and/or NF-κB activity and use thereof” (Bristol-Myers Squibb Company, priority 2006, dated 2011).

In assay [1] the test system is AP-1 induced transcriptional activity. In words: Cellular Transrepressional Assay (AP-1 luciferase reporter in A549 cells, PMA-activated). Particulars: A549 cells with 7x AP-1 luciferase reporter, 10 ng/ml PMA, read-out: AP-1 (EC50, nM) (Cellular Transrepression Assay). It counts as cell-based. The essentials:
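Stable A549 AP-1 (7× sites) luciferase reporter line stimulated with 10 ng/ml PMA plus test molecules (0.1 nM to 40 μM) for 7 h. Luminescence read after 10 min with luciferase reagent; EC50 from % decrease of PMA-induced signal.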

For assay [2], the target named is T1, human full-length glucocorticoid receptor (Homo sapiens, UniProt P04150).
T1 construct: a cell lysate containing recombinantly expressed human full-length glucocorticoid receptor; purchased PanVera Co., Madison, Wis; P2816
T1 sequence (P04150 1-777): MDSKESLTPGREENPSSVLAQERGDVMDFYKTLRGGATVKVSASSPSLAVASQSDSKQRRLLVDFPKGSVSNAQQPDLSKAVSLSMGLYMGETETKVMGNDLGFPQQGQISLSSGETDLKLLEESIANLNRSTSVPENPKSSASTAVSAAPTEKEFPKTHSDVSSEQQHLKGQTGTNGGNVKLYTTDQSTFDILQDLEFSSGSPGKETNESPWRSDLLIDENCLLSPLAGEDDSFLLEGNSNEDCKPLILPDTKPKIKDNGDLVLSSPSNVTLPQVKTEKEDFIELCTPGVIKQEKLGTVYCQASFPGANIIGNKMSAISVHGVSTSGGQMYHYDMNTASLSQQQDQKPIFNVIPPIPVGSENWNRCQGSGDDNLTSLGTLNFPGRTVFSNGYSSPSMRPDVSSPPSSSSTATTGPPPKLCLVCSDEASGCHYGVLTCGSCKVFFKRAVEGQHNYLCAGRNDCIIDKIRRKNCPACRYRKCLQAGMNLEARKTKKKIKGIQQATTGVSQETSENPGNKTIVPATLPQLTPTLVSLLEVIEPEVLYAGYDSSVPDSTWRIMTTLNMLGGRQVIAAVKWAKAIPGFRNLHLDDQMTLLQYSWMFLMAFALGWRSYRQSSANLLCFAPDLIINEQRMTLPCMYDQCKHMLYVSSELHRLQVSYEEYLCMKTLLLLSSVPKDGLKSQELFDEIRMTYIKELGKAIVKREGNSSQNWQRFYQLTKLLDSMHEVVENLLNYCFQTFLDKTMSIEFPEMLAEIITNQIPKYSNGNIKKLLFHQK
In words: Glucocorticoid Receptor Binding Assay (II), fluorescence polarization competitor kit (Fluormone GS1). Particulars: cell lysate with recombinant human full-length GR, 1 nM Fluormone GS1, FP. How it is done: In order to measure the binding of compounds on the glucocorticoid receptor a commercially available kit was used (Glucocorticoid receptor competitor assay kit, PanVera Co., Madison, Wis., P2816). Briefly, a cell lysate containing recombinantly expressed human full-length glucocorticoid receptor was mixed with a fluorescently labeled glucocorticoid (1 nM Fluormone GS1) in the presence or absence of test compound. After one hour at room temperature, the fluorescence polarization (FP) of the samples were measured.
Background: Polarisation of emitted light reports the rotation of a fluorescent probe.

The target of assay [3] is T2, human glucocorticoid receptor (Homo sapiens, UniProt P04150).
T2 construct: purified human recombinant full-length glucocorticoid receptor (2 nM); purchased Invitrogen Part #2893
T2 sequence (P04150 1-777): T1 sequence (P04150 1-777)
Nature of the assay: Glucocorticoid Receptor Binding Assay (I), fluorescence polarization competitor kit (Fluormone GS Red). Particulars: purified human recombinant full-length GR 2 nM, 1 nM Fluormone GS Red, FP. How it is done:
Briefly, purified human recombinant full-length glucocorticoid receptor (2 nM) was mixed with fluorescently labeled glucocorticoid (1 nM Fluormone GS Red) in the presence or absence of test compound. After two hour incubation at room temperature in the dark, the fluorescence polarization (FP) of the samples was measured. […] Test compounds were analyzed in the concentration range from 8.5E-05 μM to 5 μM.

The mark [4] stands for this setting: read-out: GR (Ki, nM) (GR Binding Assay (I)).

Like-named read-outs stand apart in the source and are kept apart here.

In general, EC50 refers to the concentration at which the effect is half-maximal. A word on the Ki: it is the equilibrium dissociation constant of an inhibitor or competing ligand from its target. For `CC(C)CC1(c2ccc3c(cnn3-c3ccc(F)cc3)c2)CC1C(=O)Nc1nccs1` (mixture of isomers) [Example 100, Cis and trans-2-(1-(4-fluorophenyl)-1H-indazol-5-yl)-2-isobutyl-N-(thiazol-2-yl)cyclopropanecarboxamide], the EC50 in assay [1] (Homo sapiens, A549, 7 h) came out at 290 nM. The Ki in assay [2] was 102 nM.

Regarding `CC(C(=O)Nc1nncs1)C(c1ccccc1)c1ccc2[nH]ncc2c1` (single isomer, unassigned) [151-diast A, 3-(1H-Indazol-5-yl)-2-methyl-3-phenyl-N-(1,3,4-thiadiazol-2-yl)propanamide], the EC50 in assay [1] (7 hours) was determined as 9 nM. The Ki in assay [2] stood at 1.6 nM.

Take `CC(C(=O)Nc1nncs1)C(c1ccccc1)c1ccc2[nH]ncc2c1` (single isomer, unassigned) [151-diast B, 3-(1H-Indazol-5-yl)-2-methyl-3-phenyl-N-(1,3,4-thiadiazol-2-yl)propanamide]: the concentration for a half-maximal effect (EC50) in assay [1] (7 hours) came to 1740 nM. In addition, the Ki in assay [2] came to 283 nM.

As to `CC(C)(C(=O)Nc1nccs1)C(c1ccccc1)c1ccc2c(cnn2-c2cccnc2)c1` (centres unmarked) [Example 85, 2,2-dimethyl-3-phenyl-3-(1-(pyridin-3-yl)-1H-indazol-5-yl)-N-(thiazol-2-yl)propanamide], the Ki in assay [3] (GR (Ki, nM) (GR Binding Assay (I))) stood at 7.8 nM. In addition, the EC50 in assay [1] (Homo sapiens, A549, 7 h) was 40 nM.

Turning to `CC(C)(C(=O)Nc1nncs1)C(c1ccccc1)c1ccc2c(cnn2-c2ccccc2)c1` (centres unmarked) [Example 87, 2,2-dimethyl-3-phenyl-3-(1-phenyl-1H-indazol-5-yl)-N-(1,3,4-thiadiazol-2-yl)propanamide], the Ki in assay [3] (setting [4]) is 5 nM. Further, the EC50 in assay [1] (Homo sapiens, A549, 7 h) is 20 nM.

On to `CC(C)(C(=O)Nc1nncs1)C(c1ccccc1)c1ccc2c(cnn2-c2ccc(C(F)(F)F)cc2)c1` (centres unmarked) [Example 90, 2,2-dimethyl-3-phenyl-N-(1,3,4-thiadiazol-2-yl)-3-(1-(4-(trifluoro-methyl)phenyl)-1H-indazol-5-yl)propanamide], for which the Ki in assay [3] (setting [4]) was determined as 85 nM. In addition, the EC50 in assay [1] (Homo sapiens, A549, 7 h) was above 10000 nM.

Regarding `CC(C)(C(=O)Nc1nncs1)C(c1ccccc1)c1ccc2c(cnn2-c2ccc(Br)cc2)c1` (centres unmarked) [Example 91, 3-(1-(4-bromophenyl)-1H-indazol-5-yl)-2,2-dimethyl-3-phenyl-N-(1,3,4-thiadiazol-2-yl)propanamide], the Ki in assay [3] (setting [4]) came to 29 nM. Moreover, the EC50 in assay [1] (Homo sapiens, A549, 7 h) is 956 nM.

Take `CC(C)(C(=O)Nc1nncs1)C(c1ccccc1)c1ccc2c(cnn2-c2ccc(F)cc2C(F)(F)F)c1` (centres unmarked) [Example 92, 3-(1-(4-fluoro-2-(trifluoromethyl)phenyl)-1H-indazol-5-yl)-2,2-dimethyl-3-phenyl-N-(1,3,4-thiadiazol-2-yl)proponamide]: the Ki in assay [3] (setting [4]) is 110 nM. Also, the EC50 in assay [1] (Homo sapiens, A549, 7 h) is above 10000 nM.

With `CC(C)(C(=O)Nc1nncs1)C(c1ccccc1)c1ccc2c(cnn2-c2ccc(Cl)cc2)c1` (centres unmarked) [Example 93, 3-(1-(4-chlorophenyl)-1H-indazol-5-yl)-2,2-dimethyl-3-phenyl-N-(1,3,4-thiadiazol-2-yl)propanamide], in assay [3] (setting [4]), the Ki was found to be 18 nM. In assay [1] (Homo sapiens, A549, 7 h), the concentration for a half-maximal effect (EC50) stood at 32 nM.

`O=C(Nc1nccs1)C1CC1(c1ccccc1)c1ccc2c(cnn2-c2ccc(F)cc2)c1` (stereo not drawn) [Example 98, Trans-2-(1-(4-fluorophenyl)-1H-indazol-5-yl)-2-phenyl-N-(thiazol-2-yl)cyclopropanecarboxamide]: the Ki in assay [3] (setting [4]) came to 15 nM. The EC50 in assay [1] (7 hours) was determined as 34 nM.

Take `O=C(Nc1nccs1)C1CC1c1ccc2c(cnn2-c2ccc(F)cc2)c1` (centres unmarked) [Example 103, 2-(1-(4-Fluorophenyl)-1H-indazol-5-yl)-N-(thiazol-2-yl)cyclopropanecarboxamide]: the Ki in assay [3] (setting [4]) stood at 248 nM. Also, the EC50 in assay [1] (Homo sapiens, A549, 7 h) is above 10000 nM.

Take `CC(C)(C(=O)Nc1nccs1)C(c1ccccc1)c1ccc2[nH]ccc2c1` (centres unmarked) [Example 107, 3-(1H-Indol-5-yl)-2,2-dimethyl-3-phenyl-N-(thiazol-2-yl)propanamide]: the Ki in assay [3] (setting [4]) turned out to be 7.8 nM. Also, in assay [1] (Homo sapiens, A549, 7 h), the EC50 worked out at 193 nM.

Take `CC(C)(C(=O)Nc1nccs1)C(c1ccccc1)c1ccc2[nH]cc(C#N)c2c1` (centres unmarked) [Example 108, 3-(3-Cyano-1H-indol-5-yl)-2,2-dimethyl-3-phenyl-N-(thiazol-2-yl)propanamide]: the Ki in assay [3] (setting [4]) turned out to be 6.6 nM. The EC50 in assay [1] (Homo sapiens, A549, 7 h) turned out to be 1200 nM.

Turning to `CC(C)(C(=O)Nc1nccs1)C(c1ccccc1)c1ccc2[nH]cc(C=O)c2c1` (centres unmarked) [Example 109, 3-(3-Formyl-1H-indol-5-yl)-2,2-dimethyl-3-phenyl-N-(thiazol-2-yl)propanamide], the Ki in assay [3] (setting [4]) stood at 59 nM. Besides, in assay [1] (Homo sapiens, A549, 7 h), the EC50 is above 10000 nM.

Take `CC(C)(C(=O)Nc1nccs1)C(c1ccccc1)c1ccc2c(ccn2-c2ccc(F)cc2)c1` (centres unmarked) [Example 110, 3-(1-(4-Fluorophenyl)-1H-indol-5-yl)-2,2-dimethyl-3-phenyl-N-(thiazol-2-yl)propanamide]: in assay [3] (setting [4]), the Ki was determined as 13 nM. Further, the EC50 in assay [1] (Homo sapiens, A549, 7 h) came to 220 nM.

Turning to `CC(C)(C(=O)Nc1nccs1)C(c1ccccc1)c1ccc2c(-c3ccccc3)n[nH]c2c1` (centres unmarked) [Example 112, 2,2-Dimethyl-3-phenyl-3-(3-phenyl-1H-indazol-6-yl)-N-(thiazol-2-yl)propanamide], the Ki in assay [3] (setting [4]) is 13 nM. Also, in assay [1] (Homo sapiens, A549, 7 h), the EC50 worked out at 2410 nM.

For `CC(C)(C(=O)Nc1nccs1)C(c1ccccc1)c1ccc2[nH]c(-c3ccncc3)cc2c1` (centres unmarked) [Example 115, 2,2-dimethyl-3-phenyl-3-(2-(pyridin-4-yl)-1H-indol-5-yl)-N-(thiazol-2-yl)propanamide], the Ki in assay [3] (setting [4]) stood at 26 nM. For the same compound, the EC50 in assay [1] (Homo sapiens, A549, 7 h) came out at 3640 nM.

On to `CC(C)(C(=O)Nc1nncs1)C(c1ccccc1)c1ccc2[nH]c(-c3ccncc3)cc2c1` (centres unmarked) [Example 116, 2,2-dimethyl-3-phenyl-3-(2-(pyridin-4-yl)-1H-indol-5-yl)-N-(1,3,4-thiadiazol-2-yl)propanamide], for which, in assay [3] (setting [4]), the Ki was 43 nM. Further, the EC50 in assay [1] (Homo sapiens, A549, 7 h) came to 3260 nM.

With `CC(C)(C(=O)Nc1nccs1)C(c1ccccc1)c1ccc2[nH]c(-c3nccs3)cc2c1` (centres unmarked) [Example 117, 2,2-dimethyl-3-phenyl-N-(thiazol-2-yl)-3-(2-(thiazol-2-yl)-1H-indol-5-yl)propanamide], in assay [3] (setting [4]), the Ki was determined as 57 nM. The EC50 in assay [1] (Homo sapiens, A549, 7 h) stood at 3610 nM.

Regarding `CC(C)(C(=O)Nc1nncs1)C(c1ccccc1)c1ccc2[nH]c(-c3nccs3)cc2c1` (centres unmarked) [Example 118, 2,2-dimethyl-3-phenyl-N-(1,3,4-thiadiazol-2-yl)-3-(2-(thiazol-2-yl)-1H-indol-5-yl)propanamide], the Ki in assay [3] (setting [4]) is 95 nM. Besides, in assay [1] (Homo sapiens, A549, 7 h), the EC50 turned out to be 2930 nM.

For `Cc1ccc(-c2cc3cc(C(c4ccccc4)C(C)(C)C(=O)Nc4nccs4)ccc3[nH]2)cc1` (centres unmarked) [Example 119, 2,2-dimethyl-3-phenyl-N-(thiazol-2-yl)-3-(2-p-tolyl-1H-indol-5-yl)propanamide], the Ki in assay [3] (setting [4]) turned out to be 146 nM. Besides, in assay [1] (Homo sapiens, A549, 7 h), the EC50 worked out at 2130 nM.

For the compound `CC(C)(C(=O)Nc1nncs1)C(C)(C)c1ccc2c(cnn2-c2ccc(F)cc2)c1` [Example 120, 3-(1-(4-fluorophenyl)-1H-indazol-5-yl)-2,2,3-trimethyl-N-(1,3,4-thiadiazol-2-yl)butanamide], the Ki in assay [3] (setting [4]) was found to be 5.8 nM. Further, the EC50 in assay [1] (Homo sapiens, A549, 7 h) came to 74 nM.

For the compound `CC(C)(C(=O)Nc1nncs1)[C@@H](c1ccccc1)c1ccc2c(cnn2-c2ccc(F)cc2C(=O)O)c1` [Example 157, 2-(5-((S)-3-(1,3,4-Thiadiazol-2-ylamino)-2,2-dimethyl-3-oxo-1-phenylpropyl)-1H-indazol-1-yl)-5-fluorobenzoic acid], the Ki in assay [2] came to 634 nM.

Consider `CC(C)(C(=O)Nc1nccs1)C(c1ccccc1)c1cnc2c(cnn2-c2ccccc2)c1` (centres unmarked) [Example 162, 2,2-dimethyl-3-phenyl-3-(1-phenyl-1H-pyrazolo[3,4-b]pyridin-5-yl)-N-(thiazol-2-yl)propanamide], for which the Ki in assay [3] (setting [4]) was determined as 3.6 nM. Besides, the EC50 in assay [1] (Homo sapiens, A549, 7 h) worked out at 3560 nM.
